{"source": "patent US20260226077A1", "about": "“TYPE II TOPOISOMERASE INHIBITORS AND METHODS OF MAKING AND USING THEREOF” (Ohio State Innovation Foundation, priority 2023, published 2026)", "key": {"[1]": {"test_system": "Acinetobacter baumannii 19606", "experiment": "MIC against Acinetobacter baumannii 19606", "type": "cell-based"}, "[2]": {"test_system": "Burkholderia pseudomallei", "experiment": "microbe, parasite or virus in culture", "type": "cell-based"}, "[3]": {"test_system": "S. aureus 29213", "experiment": "MIC against S. aureus 29213", "type": "cell-based", "conditions": "Staphylococcus aureus"}, "[4]": {"test_system": "FQ-R MRSA", "experiment": "MIC against FQ-R MRSA isolates", "type": "cell-based, Staphylococcus aureus", "conditions": "Staphylococcus aureus, MRSA; n = 15 (147), n = 25 (284, 319, gepotidacin)"}, "[5]": {"test_system": "S. aureus USA300", "experiment": "MIC against S. aureus USA300", "type": "cell-based", "conditions": "Staphylococcus aureus"}, "[6]": {"experiment": "Mouse microsomal stability", "type": "in vitro ADME", "conditions": "microsomes, read-out: Mouse microsom. t1/2"}, "[7]": {"experiment": "Rat microsomal stability", "type": "in vitro ADME", "conditions": "microsomes, read-out: Rat microsom. t1/2"}, "[8]": {"test_system": "S. aureus ATCC 29213", "type": "cell-based", "conditions": "Using S. aureus ATCC 29213 and four additional strains of S. aureus"}, "[9]": {"test_system": "Mycobacterium chimaera intracellulare group", "experiment": "MIC50 against Mycobacterium chimaera intracellulare group", "type": "cell-based", "conditions": "n = 6"}, "[10]": {"experiment": "not given", "remark": "listed apart in the source"}, "[11]": {"experiment": "Permeability: CACO-2 A->B", "type": "in vitro ADME", "conditions": "human, Caco-2"}, "[12]": {"target": "hERG (Homo sapiens, UniProt Q12809)", "sequence (Q12809 whole entry)": "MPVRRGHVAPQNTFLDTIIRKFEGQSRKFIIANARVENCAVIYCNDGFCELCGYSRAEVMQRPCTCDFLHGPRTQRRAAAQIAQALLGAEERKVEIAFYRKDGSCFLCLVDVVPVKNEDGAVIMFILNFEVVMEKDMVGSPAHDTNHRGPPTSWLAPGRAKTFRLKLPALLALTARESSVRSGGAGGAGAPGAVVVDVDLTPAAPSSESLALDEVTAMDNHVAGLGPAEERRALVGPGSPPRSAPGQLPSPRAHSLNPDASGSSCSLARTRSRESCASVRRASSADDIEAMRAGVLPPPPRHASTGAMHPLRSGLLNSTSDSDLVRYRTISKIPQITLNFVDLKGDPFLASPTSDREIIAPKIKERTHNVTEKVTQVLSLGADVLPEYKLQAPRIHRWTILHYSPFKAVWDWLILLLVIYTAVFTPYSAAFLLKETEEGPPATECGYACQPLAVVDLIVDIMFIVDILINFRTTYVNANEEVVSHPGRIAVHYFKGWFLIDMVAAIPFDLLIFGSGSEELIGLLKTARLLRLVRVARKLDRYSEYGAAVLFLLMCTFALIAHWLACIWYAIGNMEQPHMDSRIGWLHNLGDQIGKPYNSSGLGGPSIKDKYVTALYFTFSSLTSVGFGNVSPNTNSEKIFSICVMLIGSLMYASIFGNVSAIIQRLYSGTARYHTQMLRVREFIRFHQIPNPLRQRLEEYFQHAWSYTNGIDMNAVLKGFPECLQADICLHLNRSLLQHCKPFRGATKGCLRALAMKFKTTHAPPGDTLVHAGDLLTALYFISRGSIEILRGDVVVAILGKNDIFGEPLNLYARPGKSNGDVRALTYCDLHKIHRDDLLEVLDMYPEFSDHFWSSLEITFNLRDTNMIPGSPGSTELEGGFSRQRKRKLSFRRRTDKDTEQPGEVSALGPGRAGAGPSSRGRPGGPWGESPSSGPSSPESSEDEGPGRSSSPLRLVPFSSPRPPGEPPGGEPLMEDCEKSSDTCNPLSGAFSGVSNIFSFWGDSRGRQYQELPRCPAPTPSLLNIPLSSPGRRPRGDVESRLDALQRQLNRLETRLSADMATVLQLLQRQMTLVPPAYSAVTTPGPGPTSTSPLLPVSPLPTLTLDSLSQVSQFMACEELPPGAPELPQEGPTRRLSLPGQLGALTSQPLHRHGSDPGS", "experiment": "hERG inhibition", "type": "cell-based"}, "[13]": {"test_system": "Mycobacterium avium", "experiment": "MIC50 against Mycobacterium avium", "type": "cell-based", "conditions": "n = 4"}, "[14]": {"experiment": "not given", "remark": "listed apart in the source"}, "[15]": {"test_system": "Pseudomonas aeruginosa 27853", "experiment": "MIC against Pseudomonas aeruginosa 27853", "type": "cell-based"}, "[16]": {"test_system": "Streptococcus pyogenes", "experiment": "MIC50/90 against Streptococcus pyogenes", "type": "cell-based"}, "[17]": {"test_system": "TopoIV/gyrase", "experiment": "TopoIV/gyrase inhibition ratio", "type": "biochemical"}, "[18]": {"experiment": "in vitro", "conditions": "rat, plasma"}, "[19]": {"test_system": "Mycobacterium abscessus", "experiment": "MIC50/90 against Mycobacterium abscessus", "type": "cell-based", "conditions": "Mycobacteroides abscessus; n = 10"}, "[20]": {"experiment": "in vivo", "conditions": "mouse, Mouse Vdss (L)"}, "[21]": {"test_system": "Streptococcus pneumoniae", "experiment": "MIC50/90 against Streptococcus pneumoniae", "type": "cell-based"}, "[22]": {"test_system": "Francisella tularensis", "experiment": "microbe, parasite or virus in culture", "type": "cell-based"}, "[23]": {"conditions": "in vivo"}, "[24]": {"test_system": "Yersinia pestis", "experiment": "microbe, parasite or virus in culture", "type": "cell-based"}, "[25]": {"experiment": "in vitro", "conditions": "human, plasma"}, "[26]": {"experiment": "not given", "remark": "listed apart in the source"}, "[27]": {"test_system": "S. aureus CF isolate", "experiment": "MIC against S. aureus CF isolate", "type": "cell-based", "conditions": "Staphylococcus aureus"}, "[28]": {"test_system": "Haemophilus influenzae", "experiment": "MIC50/90 against Haemophilus influenzae", "type": "cell-based", "conditions": "n = 10"}, "[29]": {"test_system": "Enterococcus spp.", "experiment": "MIC50/90 against Enterococcus spp.", "type": "cell-based", "conditions": "n = 10 (147), n = 20 (others)"}, "[30]": {"experiment": "not given", "remark": "listed apart in the source"}, "[31]": {"test_system": "CYP 1A, 2B6, 2C8, 2C9, 2C19, 2D6, 3A", "experiment": "CYP inhibition at 10 μM", "type": "in vitro ADME"}, "[32]": {"test_system": "Staphylococcus epidermidis", "experiment": "MIC50/90 against Staphylococcus epidermidis", "type": "cell-based", "conditions": "n = 10"}, "[33]": {"test_system": "M121K", "experiment": "MIC against M121K mutant", "type": "cell-based"}, "[34]": {"experiment": "Permeability: MDCK II A->B", "type": "in vitro ADME", "conditions": "dog"}, "[35]": {"conditions": "all channels"}, "[36]": {"experiment": "Human microsomal stability", "type": "in vitro ADME", "conditions": "microsomes, read-out: Human microsom. t1/2"}, "[37]": {"test_system": "Neisseria gonorrhoeae", "experiment": "MIC50/90 against Neisseria gonorrhoeae", "type": "cell-based"}, "[38]": {"test_system": "K562", "experiment": "K562 cytotoxicity", "type": "cell-based", "conditions": "Homo sapiens"}, "[39]": {"test_system": "Staphylococcus aureus", "experiment": "MIC50/90 against Staphylococcus aureus isolates", "type": "cell-based", "conditions": "n = 30 (147), n = 100 (284, 319, gepotidacin)"}, "[40]": {"test_system": "Streptococcus agalactiae", "experiment": "MIC50/90 against Streptococcus agalactiae", "type": "cell-based"}, "[41]": {"experiment": "in vitro", "conditions": "human, hepatocytes"}, "[42]": {"test_system": "Escherichia coli 25922", "experiment": "MIC against Escherichia coli 25922", "type": "cell-based"}, "[43]": {"conditions": "Neisseria gonorrhoeae, n = 17 (284, gepotidacin), n = 110 (147)"}}, "note": "Marks after values point to notes of the source that are not given here."}
{"smiles": "COc1ccc2ncc(F)c(C[C@H](O)[C@H]3OC[C@H](NCc4cnc5c(n4)NC(=O)CO5)CO3)c2n1", "note": "[Compound 284, 6-(((2-((S)-2-(3-fluoro-6-methoxy-1,5-naphthyridin-4-yl)-1-hydroxyethyl)-trans-1,3-dioxan-5-yl)amino)methyl)-2H-pyrazino[2,3-b][1,4]oxazin-3(4H)-one]", "values": [{"measurement": "MIC", "setting": "[1]", "value": "8 to 16", "unit": "µg/mL"}, {"measurement": "MIC50", "setting": "[2]; read-out: Burkholderia pseudomallei MIC50 (μg/mL)", "value": 32, "unit": "µg/mL"}, {"measurement": "MIC90", "setting": "[2]; read-out: Burkholderia pseudomallei MIC90 (μg/mL)", "value": 64, "unit": "µg/mL"}, {"measurement": "MIC", "setting": "[3]", "value": "0.125 to 0.25", "unit": "µg/mL"}, {"measurement": "MIC90", "setting": "[4]", "value": 0.12, "unit": "µg/mL"}, {"measurement": "MIC", "setting": "[5]", "value": "0.125 to 0.25", "unit": "µg/mL"}, {"measurement": "half-life", "setting": "[6]", "value": "> 2", "unit": "h"}, {"measurement": "half-life", "setting": "[7]", "value": "> 2", "unit": "h"}, {"measurement": "Resistance freq. (at 8X MIC)", "setting": "[8]", "value": "<9.62 × 10^−10**"}, {"measurement": "Safety44 screen at 100 μM", "value": "None >50%"}, {"measurement": "MIC50", "setting": "[9]", "value": 64, "unit": "µg/mL"}, {"measurement": "Kinetic solubility at pH 7.4-7.5 (μM)", "setting": "[10]", "value": "> 200", "unit": "μM"}, {"measurement": "Papp A→B", "setting": "[11]", "value": 1.5, "unit": "×10⁻⁶ cm/s"}, {"measurement": "IC50", "setting": "[12]", "value": 104, "unit": "µM"}, {"measurement": "MIC50", "setting": "[13]", "value": 4, "unit": "µg/mL"}, {"measurement": "Human plasma protein binding (% unbound)", "setting": "[14]", "value": 10, "unit": "% unbound"}, {"measurement": "MIC", "setting": "[15]", "value": 64, "unit": "µg/mL"}, {"measurement": "MIC50", "setting": "[16]; n = 5 (147), n = 10 (others)", "value": 0.5, "unit": "µg/mL"}, {"measurement": "MIC90", "setting": "[16]; n = 10", "value": 2, "unit": "µg/mL"}, {"measurement": "TopoIV/gyrase ratio", "setting": "[17]", "value": 0.28}, {"measurement": "half-life", "setting": "[18]", "value": "> 2", "unit": "h"}, {"measurement": "MIC50", "setting": "[19]", "value": "> 64", "unit": "µg/mL"}, {"measurement": "MIC90", "setting": "[19]", "value": "> 64", "unit": "µg/mL"}, {"measurement": "Vd", "setting": "[20]", "value": 0.36, "unit": "L"}, {"measurement": "MIC50", "setting": "[21]; n = 5 (147), n = 10 (others)", "value": 0.5, "unit": "µg/mL"}, {"measurement": "MIC90", "setting": "[21]; n = 10", "value": 1, "unit": "µg/mL"}, {"measurement": "MIC50", "setting": "[22]; read-out: Francisella tularensis MIC50 (μg/mL)", "value": 0.5, "unit": "µg/mL"}, {"measurement": "MIC90", "setting": "[22]; read-out: Francisella tularensis MIC90 (μg/mL)", "value": 4, "unit": "µg/mL"}, {"measurement": "Mouse Vdss (L)", "setting": "[23]", "value": "0.53*** L"}, {"measurement": "MIC50", "setting": "[24]; read-out: Yersinia pestis MIC50 (μg/mL)", "value": 2, "unit": "µg/mL"}, {"measurement": "MIC90", "setting": "[24]; read-out: Yersinia pestis MIC90 (μg/mL)", "value": 8, "unit": "µg/mL"}, {"measurement": "half-life", "setting": "[25]", "value": "> 2", "unit": "h"}, {"measurement": "Rat plasma protein binding (% unbound)", "setting": "[26]", "value": 4, "unit": "% unbound"}, {"measurement": "MIC", "setting": "[27]", "value": "0.125 to 0.25", "unit": "µg/mL"}, {"measurement": "MIC50", "setting": "[28]", "value": 4, "unit": "µg/mL"}, {"measurement": "MIC90", "setting": "[28]", "value": 8, "unit": "µg/mL"}, {"measurement": "MIC50", "setting": "[29]", "value": 1, "unit": "µg/mL"}, {"measurement": "MIC90", "setting": "[29]", "value": 2, "unit": "µg/mL"}, {"measurement": "Dog plasma protein binding (% unbound)", "setting": "[30]", "value": 20, "unit": "% unbound"}, {"measurement": "CYP inhibition at 10 μM (1A, 2B6, 2C8, 2C9, 2C19, 2D6, 3A)", "setting": "[31]", "value": "No issues"}, {"measurement": "MIC50", "setting": "[32]", "value": 0.12, "unit": "µg/mL"}, {"measurement": "MIC90", "setting": "[32]", "value": 0.25, "unit": "µg/mL"}, {"measurement": "MIC", "setting": "[33]", "value": "1 to 4", "unit": "µg/mL"}, {"measurement": "Papp A→B", "setting": "[34]", "value": 0.74, "unit": "×10⁻⁶ cm/s"}, {"measurement": "Comprehensive in vitro proarrhythmia assay at 100 μM, inhibition", "setting": "[35]", "value": "All <25%"}, {"measurement": "half-life", "setting": "[36]", "value": "> 2", "unit": "h"}, {"measurement": "MIC50", "setting": "[37]; Neisseria gonorrhoeae, n = 100", "value": 0.5, "unit": "µg/mL"}, {"measurement": "MIC50", "setting": "[37]; [43]", "value": 1, "unit": "µg/mL"}, {"measurement": "MIC90", "setting": "[37]; [43]", "value": 2, "unit": "µg/mL"}, {"measurement": "Neisseria gonorrhoeae MIC90", "setting": "[37]; n = 100", "value": 2, "unit": "µg/mL"}, {"measurement": "IC50", "setting": "[38]", "value": "> 200", "unit": "µM"}, {"measurement": "MIC50", "setting": "[39]", "value": 0.12, "unit": "µg/mL"}, {"measurement": "MIC90", "setting": "[39]", "value": 0.25, "unit": "µg/mL"}, {"measurement": "MIC50", "setting": "[40]; Streptococcus agalactiae, n = 5 (147), n = 10 (others)", "value": 4, "unit": "µg/mL"}, {"measurement": "Streptococcus agalactiae MIC90", "setting": "[40]; n = 10", "value": 16, "unit": "µg/mL"}, {"measurement": "half-life", "setting": "[41]", "value": "> 4", "unit": "h"}, {"measurement": "Escherichia coli 25922 MIC", "setting": "[42]", "value": 16, "unit": "µg/mL"}]}
